# Test results published in the METLIN SMRT retention time set (Domingo-Almenara et al. 2019).
# Assay: gradient 5% acetonitrile 3 min, to 50% in 2 min, to 85% in 15 min, held 3 min, 100 µL/min
# Settings: column: Zorbax Extend-C18 2.1 x 50 mm; eluents: water / acetonitrile, 0.1% formic acid
# Procedure, shortened: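 Retention times come from adduct peaks that were picked computationally and then checked by hand. The standards, pure and pooled in mixtures of ~100 molecules, were run on a Zorbax Extend-C18 column (2.1 × 50 mm, 1.8 μm) at 100 μL/min with water and acetonitrile, each with 0.1% formic acid. Detection was by quadrupole time-of-flight mass spectrometry in positive and negative ionization mode, with a dead volume of 40 μL and a dwell volume of 900 μL.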
row,Compound,RP-LC retention time [s]
1,COc1cccc(Oc2nccn3c(=O)n(CC(=O)Nc4cccc(C(F)(F)F)c4)nc23)c1,919
2,COCc1nc(NCc2ccc(OC)c(OC)c2)ncc1C(=O)O,644
3,Cc1ccsc1C(=O)N1CCC(C2CCN(S(C)(=O)=O)CC2)C1 (stereo not drawn),626
4,COc1ccc(CCC(=O)N2CCN(c3nnc4ccc(C(F)(F)F)cn34)CC2)cc1,709
5,COc1ccc(C(=O)NC2(c3nc(-c4ccncc4)no3)CCCCC2)cc1OC,827
6,Cc1c(CN2CC(F)(F)C[C@H]2COc2ccncc2)cnn1C,502
7,CCOC(=O)C1CCN(S(=O)(=O)c2cc3c4c(c2)CCC(=O)N4CCC3)CC1,769
8,CCc1noc(NC(C)=O)c1-c1ccc(OC)c(S(=O)(=O)Nc2cc(C)ccc2C)c1,846
9,CCOc1ccc(Br)cc1S(=O)(=O)Nc1ccc(-c2cn3ccc(C)nc3n2)cc1,724
10,COc1ccc(CN2CCc3nc(N4CCOCC4)ncc3C2)c(OC)c1,611
11,Cc1nnc2ccc(S(=O)(=O)N(Cc3ccc(F)cc3)c3ccc(F)cc3)cn12,892
12,O=C(Nc1ccc(F)cc1)C1CCCN(c2cnc3nccnc3c2)C1 (stereo not drawn),736
13,NC(=O)c1cccc2ncc(-c3ccc(Cl)cc3)nc12,831
14,O=C(Nc1ccc(F)cc1F)C1CCCN(S(=O)(=O)Cc2ccccc2)C1 (stereo not drawn),933
15,Cc1ccc(C(=O)N2CCC3(CC2)NC(=O)c2ccc(F)cc2N3C)cc1,763
16,Cc1oc(-c2[nH]ncc2C(=O)N2CCCC2)cc1S(=O)(=O)NCCCc1ccccc1,799
17,CC1CCN(c2ncnc3c2cnn3CC(=O)Nc2ccc(Cl)cc2)CC1,697
18,COC(=O)c1c(C)c(C(=O)C(C)N(Cc2ccc(F)cc2)C(=O)C2CCC2)c(C)n1C (stereo not drawn),1040
19,Cc1noc([C@@H]2CN(S(=O)(=O)c3ccc(Cl)s3)C[C@H]2C(N)=O)n1,732
20,Cc1nnc(-c2cc(C)n(CC(=O)Nc3cccc(C)c3C)c2C)o1,767
21,CC(C)c1nc(CNC(=O)c2ccc(Cl)cc2)no1,785
22,Cc1ccc(-c2nc(-c3ccc(-c4noc(CNC(=O)c5ccccc5)n4)cc3)cs2)s1,1250

row,Compound,RP-LC retention time [s]
1,CC1=C(c2ccccc2)S(=O)(=O)N=C1N1CCCN(C(=O)C2CCOC2)CC1 (stereo not drawn),675
2,CCOc1cc(=O)n2c(c1C(=O)N1CCN(C3CCCCC3)CC1)CCCCC2,590
3,COc1ccc(-c2ccc3nc(N4CCC(C(=O)NCCN(C)C)CC4)sc3n2)cc1,665
4,Cc1cc(NC(=O)NCCc2c(C)nn(C)c2C)ccc1Br,705
5,CCN1C(=O)c2ccccc2Oc2ccc(C(=O)NCc3ccccc3)cc21,912
6,N#Cc1c(N)nc(SCc2csc(-c3ccc(Cl)cc3)n2)c(C#N)c1-c1ccc(OCCO)cc1,1130
7,COc1ccc(CNC(=O)c2ccc3c(c2)OCO3)c(OC)c1,749
8,Nc1cc(=O)nc(SCC(=O)NC2CCCCC2)n1-c1cccc(C(F)(F)F)c1,649
9,CCCn1ccc2sc(C)c(C(=O)N3CCN(C(C)C)CC3)c2c1=O,587
10,CCN(CC)S(=O)(=O)c1cc(-c2nc(C(C)C)cs2)sc1C,1270
11,NS(=O)(=O)c1ccc(CNC(=O)CCCn2cnc(-c3ccc(F)cc3)cc2=O)cc1,652
12,CN1CCN(C(=O)C2CCN(c3nc4ccc(-c5ccc(F)cc5)nc4s3)CC2)CC1,674
13,Cn1nc(-c2nc(C3CC3)no2)c2c1CCN(C(=O)c1ccc(OC(F)(F)F)cc1)C2,937
14,Cc1nc2nc(-c3ccc(C(C)(C)C)cc3)nn2c(C)c1CC(=O)Nc1ccc(Br)cc1,1220
15,Cc1cc(-n2c(C)nc3ccccc3c2=O)ccc1NC(=O)Cc1cccs1,769
16,CCn1cc(-c2ccncc2)cc1C(=O)NCc1ccc(Cl)cc1,679
17,COCCOCc1nc(C2CCCN2S(=O)(=O)c2cccc3nsnc23)no1 (stereo not drawn),759
18,Cc1cc2nn(CC(=O)Nc3ccc(F)c(F)c3)c(=O)n2c(Nc2ccc(F)c(C)c2)n1,1090
19,CCc1ccc(S(=O)(=O)Nc2ccc3c(c2)nc(-c2ccc(C(=O)NC)cc2)n3C)cc1,674
20,CCNC(=O)c1nc(C(=O)NCCC(C)C)cs1,771
21,COc1ccc(-c2noc(Cc3nnc(-c4ccc(C)c(F)c4)o3)n2)cc1,1050
22,O=C(NCc1ccccc1)c1ccc2ncnc(N3CCCC3)c2c1,613

row,Compound,RP-LC retention time [s]
1,COc1ccccc1-c1nnc(NC(=O)C2CCCN2S(=O)(=O)c2ccc(F)cc2)o1 (stereo not drawn),717
2,COc1ccc(NC(=O)C2CCc3sc(C(=O)N4CCCC4)cc3C2)cc1F (stereo not drawn),779
3,CCn1c(=O)c2cc(C(=O)NCc3ccc(N4CCC(C)CC4)cc3)nn2c2ccccc21,688
4,Cc1noc([C@@H]2CN(C(=O)c3ccc(Cn4ccnc4)o3)C[C@H]2C(N)=O)n1,538
5,Cc1ccc(CNC(=O)C2(C)CCCN(C(=O)Nc3cccc(C)c3C)C2)cc1 (stereo not drawn),978
6,CCS(=O)(=O)N1CC(=O)N(c2ccccc2C)C(C)(C(=O)NCc2ccc(F)cc2)C1 (stereo not drawn),809
7,Cc1nc(-c2cccc(-c3noc(COc4ccc(Cl)cc4)n3)c2)cs1,1280
8,Cc1cccc(S(=O)(=O)N2CCc3c(c(CN4CCCC4)nn3C)C2)c1,810
9,C=CCN1C(=O)COc2ccc(-c3nc(NC(=O)c4ccccc4C)sc3C)cc21,1050
10,COCCNc1c(C(=O)OC)c(=O)[nH]c2ccc(F)cc12,622
11,O=C(CC1CCOC2(CCN(Cc3cccs3)CC2)C1)NC1CC1 (stereo not drawn),578
12,Cc1cnc(C(=O)N2CC[C@H](n3c(=O)n(C)c4cccnc43)C2)cn1,647
13,O=C(c1ccco1)N1CCCn2nc(-c3cccs3)cc2C1,750
14,CSc1ccccc1C(=O)N(CCc1ccccc1)Cc1ccccn1,762
15,COc1cc2c(cc1OC)CN(CCc1ccc(NC(=O)c3cc(OC)c(OC)cc3NC(=O)c3cnc4ccccc4c3)cc1)CC2,777
16,Cc1cc(-c2nc3ccccc3s2)ccc1N,880
17,CCc1ccc(NC(=O)COc2cc(C)nc(N3CCN(c4ccccc4)CC3)n2)cc1,885
18,Cn1nc(C(=O)N2CCCCC2)c2c1CCN(C(=O)Nc1ccccc1Br)C2,764
19,Cc1cc(C)nc(Nc2nc(C)c3cc4c(cc3n2)OCO4)n1,552
20,CCn1ccc(C(=O)N2CC(c3nc(C4CC4)nn3C)C2)n1,610
21,CCOC(=O)c1ccc(NC(=O)NC2CC(=O)N(C3CCCC3)C2)cc1 (stereo not drawn),768
22,CCc1ccc(N2CC(c3noc(-c4ccc(F)cc4)n3)CC2=O)cc1 (stereo not drawn),1100

row,Compound,RP-LC retention time [s]
1,COc1ccccc1NC(=O)N1CCCN(Cc2nc3cc(Cl)ccc3o2)CC1,687
2,O=C(c1ccccc1Cl)N1CCN(C(=O)c2nnn3c2COC(c2ccccc2)C3)CC1 (stereo not drawn),858
3,Cc1noc(CNC(=O)C2CCN(C(=O)Nc3ccccc3C(F)(F)F)CC2)n1,647
4,COc1ccc(CC(=O)Nc2c(-c3ccc(F)cc3)nc3ccccn23)cc1OC,597
5,CCC(=O)N1CCc2cc(C(=O)NCc3ccc4c(c3)OCO4)ccc21,761
6,Cc1ccc(C)c(NC(=O)N2C[C@H](c3nc(-c4ccncc4)no3)[C@@H](C)C2)c1,830
7,COC(=O)c1c(NCc2ccc3c(c2)OCO3)c2ccc(F)cc2[nH]c1=O,734
8,CCCNC(=O)C1Cc2cc(S(=O)(=O)N3CCCCC3)ccc2N1C(=O)CC (stereo not drawn),800
9,O=C(CN1CCN(C(=O)Nc2ccc(Br)cc2)CC1=O)NC1CCCCCC1,786
10,O=C(CSCc1ccccc1)Nc1cc(=O)[nH]c(=O)[nH]1,629
11,CN(C)c1cccc(-c2nc(-c3ccc(S(=O)(=O)N4CCCC4)cc3)no2)c1,1250
12,Cc1csc(C(=O)NCC2CCN(C(=O)COc3ccccc3)CC2)c1,734
13,CC(C)c1nncn1C1CCN(C(=O)c2cc(-c3cccs3)[nH]n2)C1 (stereo not drawn),617
14,O=c1c2nnc(SCc3ccccc3)n2ccn1-c1ccc(Br)cc1,812
15,Cc1noc(C)c1CC(=O)N1CC(n2cc(COc3ccc(F)cc3)nn2)C1,721
16,Cc1cc(C)c(C)c(S(=O)(=O)NCCc2cn(CC(C)C)c3ncccc23)c1C,1120
17,CC(C)(C)c1noc(-c2ccc(-n3cnc(C(=O)NCc4ccc(F)cc4)c3)nc2)n1,1330
18,CCCn1cnc2ccc(-c3noc(Cc4cccs4)n3)cc21,750
19,Cc1ccccc1Oc1nccn2c(=O)n(CC(=O)Nc3ccccc3)nc12,856
20,O=C(Nc1ccc(OCc2nnc(-c3ccccc3)o2)cc1)c1cccnc1,743
21,CCCNC(=O)C1CCN(c2ccc(SCC(=O)Nc3cccc(F)c3)nn2)CC1,645
22,Cc1cccc(NC(=O)c2cn3c(n2)CCCC3)c1C,603
